Laboratory results reported in publication PMC7316490, “Dihydrofolate Reductase Is a Valid Target for Antifungal Development in the Human Pathogen Candida albicans” (mSphere, 2020).
Read-outs that look alike come from different tables or passages of the source.

Columns and labels:
[1] = molecular target: T1, Candida albicans dihydrofolate reductase (Candida albicans, UniProt P22906); experiment: biochemical; assay type: biochemical; conditions: for inhibition of C. albicans DHFR (in words): dose-response experiments, purified enzyme
T1 construct: The optimized DFR1 ORF was then cloned into pET15b; 6xHis; host or cells: Escherichia coli
T1 sequence (P22906 1-192): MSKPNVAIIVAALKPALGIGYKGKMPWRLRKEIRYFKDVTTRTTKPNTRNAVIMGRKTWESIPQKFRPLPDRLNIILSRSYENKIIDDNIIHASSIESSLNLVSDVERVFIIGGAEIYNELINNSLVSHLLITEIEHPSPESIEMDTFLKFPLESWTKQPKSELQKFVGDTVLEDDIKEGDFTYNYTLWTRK
Excerpt: Finally, we tested a panel of additional antifolates to examine the relationship between their antifungal potencies and capacities to inhibit C. albicans DHFR. The enzyme was purified using a 6×His tag ([45], [46]), and activity was detected by measuring the conversion of NADPH to NADP^+ at an optical density at 340 nm (OD340) ([34]).
The C. albicans DFR1 open reading frame (ORF) sequence was retrieved from the Candida Genome Database ([68]) and was codon optimized for expression in Escherichia coli. The optimized DFR1 ORF was then cloned into pET15b ([69]) to allow propagation and expression of C. albicans Dfr1p in E. coli. Cultures of E. coli transformed with pET15b-CaDfr1p (Biomatik) were grown overnight in LB plus ampicillin. The culture was diluted 1:100 into fresh medium and incubated at 35°C for 6 h; then Dfr1p expression was induced with isopropyl-β-D-thiogalactopyranoside (IPTG) at a final concentration of 0.5 mM for 16 h. Cells were collected by centrifugation and resuspended in binding buffer (6 g/liter Tris base, pH 7.5, 8.8 g/liter NaCl, 1 mM dithiothreitol [DTT], 0.68 g/liter imidazole, 5% glycerol, 1× protease inhibitor). Resuspended cells were lysed with 1 mg/ml chicken white lysozyme (Sigma) for 60 min at 4°C. Then, Triton X-100 and NaCl were added to 0.1% and 0.5 M, respectively. The lysate was then centrifuged, and the supernatant was collected. The supernatant was added to nickel resin beads (Sigma) and incubated at 4°C for 30 min with rotation. The buffer was removed, and the beads were washed twice with binding buffer. Then the beads were suspended in elution buffer (6 g/liter Tris base, pH 7.5, 8.8 g/liter NaCl, 1 mM DTT, 34 g/liter imidazole, 5% glycerol) and incubated at 4°C for 30 min. The elution was removed and then run on SDS-PAGE gels (Sigma) to confirm the presence of CaDfr1p. SDS-PAGE gels were run according to the manufacturer’s protocol.
The enzymatic activity of C. albicans Dfr1p was determined using a dihydrofolate reductase assay (Sigma). The manufacturer’s protocol was adapted to the fungal enzyme by scaling down the volume to 100-μl reaction mixtures with 88 μl of buffer, 6 μl of a 1 mM NADPH stock, 5 μl of a 1 mM DHF stock, and 1 μl of 3-mg/ml purified enzyme. The loss of NADPH was quantified as the decrease in absorption at the OD340 over a 30-min time frame. The IC50 was calculated by converting the change in the OD340 value per minute into the amount of THF produced per minute and then compared to the level in an untreated control.

[2] = system: wild-type C. albicans strain (SC5314); experiment: Antifungal susceptibility testing (dose-response growth, OD600); assay type: cell-based, Candida albicans; conditions: for C. albicans growth inhibition (in words): YNB medium, pH 5 and pH 7; for MIC: Candida albicans, SC5314, YNB medium buffered to either pH 5 or 7
Procedure: A wild-type C. albicans strain (SC5314) was seeded at 1 × 10^4 cells/ml into YNB medium without folate or PABA with the indicated supplements and increasing concentrations of MTX. After 48 h of incubation at 30°C, growth was quantified as the OD600 value and expressed as a percentage of the value for the DMSO-treated control. The values presented here are the average of two replicates and are representative of two independent experiments.
Approximately 1 × 10^4 cells/ml of a wild-type C. albicans strain was seeded into a 96-well plate with increasing concentrations of MTX in YNB pH 5, YNB pH 7, and RPMI pH 7 media. After 48 h, the OD600 was measured and expressed as a percentage of the value for the DMSO-treated control. The results presented here are the averages of two replicates and are representative of two independent experiments.
Stock solutions of MTX were prepared at 10 mM in dimethyl sulfoxide (DMSO) and diluted as needed in the same solvent. […] The final concentration of DMSO was 0.5% for all treatments. Plates were then incubated at 30°C before growth was quantified after 24 and 48 h by measuring the OD600 using a Cytation 5 plate reader (Bio-Tek Instruments, Inc.). MIC50 values were identified visually using the CLSI antifungal susceptibility assay and then confirmed by quantifying growth by the OD600 value. The growth of each strain at each drug concentration was then expressed relative to that of the DMSO-alone control. The susceptibility to MTX at the highest concentration at each pH was compared to that of the other pH values using a two-tailed Student's t test.

[3] = system: disseminated Candida infections; conditions: cited from earlier work; for fraction of patients nonresponsive to treatment: patients with disseminated Candida infections
[4] = system: PTET98-DFR1 strain; experiment: Passaging of doxycycline-repressible strain in fetal bovine serum; assay type: cell-based; conditions: Candida albicans, read-out: growth inhibition
Procedure: FIG 2 Dfr1p is essential for Candida albicans growth in vitro. A dfr1Δ/PTETO98-DFR1 strain was sequentially passaged in YPD broth (A), YNB broth (B), or fetal bovine serum (C), each supplemented with 5 μg/ml doxycycline (DOX). Following inoculation at approximately 5 × 10^5 cells/ml, each culture was incubated at 30°C for 24 h, and growth was measured after 24 h as the OD600 value. Relative growth was then expressed as a percentage of the untreated control, i.e., without doxycycline. The values presented here are representative of two independent experiments.
A combination of dTMP, adenine, histidine, and methionine, each of which requires folate for its biosynthesis, is sufficient to partially restore S. cerevisiae growth following treatment with antifolates ([36]). However, these supplements were not sufficient to restore C. albicans growth in the presence of MTX (Fig. 3). […] Finally, we examined if C. albicans was able to scavenge sufficient folates or folate-dependent metabolites from blood serum to negate the need for de novo biosynthesis. The PTET98-DFR1 strain was passaged for 3 days in 100% fetal bovine serum (FBS) with or without doxycycline. In the first passage, doxycycline inhibited growth by ∼60%, with increasing growth inhibition seen in subsequent subcultures (Fig. 2C). […]

[5] = system: PTET98-DFR1 strain; experiment: Mouse model of disseminated candidiasis; assay type: in vivo, BALB/c mice
Procedure: Next, we determined if DFR1 expression is essential for C. albicans virulence in a mammalian host using a mouse model of disseminated candidiasis. Female BALB/c mice were split into two treatment groups: group 1 was treated with doxycycline in a gel food formulation from 72 h before infection and for the duration of the experiment; group 2 was mock treated using unsupplemented gel food. The mice were then infected with ∼5 × 10^5 yeast cells of the PTET98-DFR1 strain via the lateral tail vein, and their health was monitored for 12 days. […] All mice in the mock-treated group succumbed to the infection by day 7 (Fig. 5A), confirming the virulence of the PTET98-DFR1 strain under nonrepressing conditions. […] On day 12, surviving animals were euthanized, kidneys were extracted and homogenized, and levels of fungal colonization were determined as CFU counts. […] To determine if suppression of Dfr1p activity is sufficient to resolve an established infection, a second experiment was performed in which mice were infected with the PTET98-DFR1 strain, and doxycycline treatment was initiated 24-h postinfection. […] Furthermore, C. albicans is unable to scavenge sufficient sources of folate to survive within mammalian tissue, and de novo biosynthesis is required. Indeed, the antifungal efficacy achieved upon repressing Dfr1p expression appears to be similar to that attained upon suppression of Erg11p expression. Accordingly, DHFR and likely other FOL pathway enzymes can provide potentially efficacious targets for antifungal development.
FIG 5 Dfr1p is essential for Candida albicans virulence in a mouse model of disseminated candidiasis. Groups of BALB/c mice (n = 6) were inoculated with ∼5 × 10^5 CFU of either the dfr1Δ/PTET98-DFR1 strain or the erg11Δ/PTETO-ERG11 strain via the lateral tail vein injections. The Erg11p strain was included to compare the antifungal efficacy of targeting Dfr1p with a previously validated target. The mice were monitored three times daily for 12 days, and those showing signs of distress were humanely euthanized. Mice were treated with 2 mg/g doxycycline (DOX) or mock treated with vehicle alone provided in a gel food formulation from 72 h prior to infection and throughout the duration of the experiment. […].
All animal experiments were done according to protocols approved by the University of Tennessee Institutional Animal Care and Use Committee. Groups of 6- to 8-week-old female BALB/c mice (Charles River Laboratories) were randomly assigned to one of three treatment groups 3 days before infection. Group 1 (minus doxycycline) was provided 20 g of DietGel (clear H2O) per day, per cage of 4 mice, while group 2 (plus doxycycline) was provided the same diet supplemented with 2 mg/ml of doxycycline hyclate. Group 3 (posttreatment) mice were given the DietGel without doxycycline until 24 h after infection and were administered 10 mg/kg of doxycycline through oral gavage at […], 24, and 36 h postinfection. Treatment was maintained daily for the duration of the experiment (up to 12 days postinfection). Each C. albicans strain was grown overnight in YPD cultures at 30°C (200 rpm). Cells were washed twice in sterile endotoxin-free phosphate-buffered saline (PBS), and cell density was determined using a hemocytometer. […] Mice were monitored for 12 days, and those showing distress were euthanized. Survival data were plotted on a Kaplan-Meier curve and analyzed by a log rank (Mantel-Cox) test using GraphPad Prism, version 8.00. […]

[6] = doxycycline treatment initiated 24-h postinfection

With Nc1nc2[nH]cc(CCc3ccc(C(=O)N[C@@H](CCC(=O)O)C(=O)O)cc3)c2c(=O)[nH]1 [Pemetrexed, pemetrexed] as the compound, how does the IC50 [1] read?
The IC50 was 1 µM.

What about the “inhibition of C. albicans DHFR (in words)” value [1] of the same compound?
Its value is “inhibited C. albicans DHFR activity”.

What about the “C. albicans growth inhibition (in words)” value [2] of the same compound?
The value was “antifungal activity at pH 5 but not at pH 7”.

What does the source list for [H]/N=C(\N/C(=N/[H])Nc1ccc(Cl)cc1)NC(C)C [Proguanil, proguanil]?
inhibition of C. albicans DHFR (in words) [1]: lacked activity; IC50 ([1]; purified C. albicans DHFR (6×His tag), read-out: IC50): > 10 µM; MIC [2]: > 25 µM

With CCc1nc(N)nc(N)c1-c1ccc(Cl)cc1 [Pyrimethamine, pyrimethamine] as the compound, how does the IC50 [1] read?
The IC50 was 0.1 µM.

And the “inhibition of C. albicans DHFR (in words)” value [1]?
Its value is “inhibited C. albicans DHFR activity”.

And the “C. albicans growth inhibition (in words)” value [2]?
Its value is “failed to inhibit C. albicans growth at either pH”.

For COc1cc(Cc2cnc(N)nc2N)cc(OC)c1OC [Trimethoprim, trimethoprim], which MIC [2] is on record?
Its MIC is greater than 25 µM.

For C[C@@H]1[C@H](O)[C@@H](C)/C=C/C=C/C=C/C=C/C=C/C=C/C=C/[C@H](O[C@@H]2O[C@H](C)[C@@H](O)[C@H](N)[C@@H]2O)C[C@@H]2O[C@](O)(C[C@@H](O)C[C@@H](O)[C@H](O)CC[C@@H](O)C[C@@H](O)CC(=O)O[C@H]1C)C[C@H](O)[C@H]2C(=O)O [amphotericin B], which favorable response rate ([3]; patients with disseminated candidiasis) is on record?
Its favorable response rate is 62%.

Which inhibition at 5 µg/mL [4] does the source give for C[C@H]1c2cccc(O)c2C(=O)C2=C(O)[C@]3(O)C(=O)C(C(N)=O)=C(O)[C@@H](N(C)C)[C@@H]3[C@@H](O)[C@@H]21 [doxycycline] here?
Its inhibition at 5 µg/mL is roughly 60%.

And the “kidney fungal colonization (CFU) on day 12” value ([5]; doxycycline from 72 h before infection)?
Its value is 5 of the 8 surviving mice had undetectable levels of fungal colonization.

And the survival ([5]; doxycycline in gel food from 72 h before infection, monitored 12 days)?
The survival was “all doxycycline-treated mice survived for the duration of the experiment”.

What about the “kidney fungal colonization at end of experiment” value [5, 6] of the same compound?
Its value is “Half of these mice had undetectable levels of fungal colonization”.

What about the “time to resolution of initial symptoms” value [5, 6] of the same compound?
Its value is no more than 6 days.

And the survival ([5]; doxycycline treatment initiated 24-h postinfection, to day 12 postinfection)?
Its survival is “all mice survived the duration of the experiment”.

With OC(Cn1cncn1)(Cn1cncn1)c1ccc(F)cc1F [fluconazole] as the compound, how does the “fraction of patients nonresponsive to treatment” value (from here on “fraction”) [3] read?
Its value is “approximately one-third”.

Which “fraction” value [3] does the source give for C[C@@H](c1nc(-c2ccc(C#N)cc2)cs1)[C@](O)(Cn1cncn1)c1cc(F)ccc1F [isavuconazole] here?
The value was “approximately one-third”.

For C[C@@H](c1ncncc1F)[C@](O)(Cn1cncn1)c1ccc(F)cc1F [voriconazole], which “fraction” value [3] is on record?
The value was “approximately one-third”.
